Measurements published in US6737383B1, “Herbicidal oxadiazolidines” (priority 1999, dated 2004).

What was measured:
crabgrass = assay: Test B pre/postemergence crabgrass; type: in vivo, Digitaria sanguinalis
Summary of the method: (§1)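 Response is a visual 0-to-10 score relative to untreated plants, where 0 means no effect and 10 means complete control, taken twelve to sixteen days after application. Treatments went onto soil at planting and onto foliage of 1- to 4-leaf plants, using a surfactant-containing non-phytotoxic solvent.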

cocklebur = assay: Test B pre/postemergence cocklebur; type: in vivo, Xanthium strumarium
Summary of the method: as §1

blackgrass = assay: Test B pre/postemergence blackgrass; type: in vivo, Alopecurus myosuroides
Summary of the method: as §1

wheat = assay: Test B pre/postemergence wheat; type: in vivo, Triticum aestivum
Summary of the method: as §1

rape = assay: Test B pre/postemergence rape; type: in vivo, Brassica napus
Summary of the method: as §1

bedstraw = assay: Test B pre/postemergence bedstraw; type: in vivo, Galium aparine
Summary of the method: as §1

giant foxtail = assay: Test B pre/postemergence giant foxtail; type: in vivo, Setaria faberii
Summary of the method: as §1

wild oat = assay: Test B pre/postemergence wild oat; type: in vivo, Avena fatua
Summary of the method: as §1

sugar beet = assay: Test B pre/postemergence sugar beet; type: in vivo, Beta vulgaris
Summary of the method: as §1

pigweed = assay: Test B pre/postemergence pigweed; type: in vivo, Amaranthus retroflexus
Summary of the method: as §1

corn = assay: Test B pre/postemergence corn; type: in vivo, Zea mays
Summary of the method: as §1

surinam grass = assay: Test B pre/postemergence surinam grass; type: in vivo, Brachiaria decumbens
Summary of the method: as §1

morningglory = assay: Test B pre/postemergence morningglory; type: in vivo, Ipomoea hederacea
Summary of the method: as §1

velvetleaf = assay: Test B pre/postemergence velvetleaf; type: in vivo, Abutilon theophrasti
Summary of the method: as §1

soybean = assay: Test B pre/postemergence soybean; type: in vivo, Glycine max
Summary of the method: as §1

purple nutsedge = assay: Test B pre/postemergence purple nutsedge; type: in vivo, Cyperus rotundus
Summary of the method: as §1

[1] = Postemergence, Rate 62 g/ha, scale 0 to 10, 0 is no effect, 10 is complete control
[2] = Postemergence, Rate 125 g/ha, scale of 0 to 10 where 0 is no effect and 10 is complete control
[3] = Postemergence, Rate 250 g/ha, scale of 0 to 10, 0 is no effect, 10 is complete control
[4] = Postemergence, Rate 500 g/ha, scale of 0 to 10 where 0 is no effect and 10 is complete control
[5] = Preemergence, Rate 62 g/ha, scale of 0 to 10 where 0 is no effect and 10 is complete control
[6] = Preemergence, Rate 125 g/ha, scale of 0 to 10 where 0 is no effect and 10 is complete control
[7] = Preemergence, Rate 250 g/ha, scale 0 to 10 (0 no effect, 10 complete control)
[8] = Preemergence, Rate 500 g/ha, scale of 0 to 10 where 0 is no effect and 10 is complete control

Q: Which “Plant response rating, Crabgrass” value (crabgrass; [1]) does the source give for `C=C(Cn1c(=O)on(C(=O)N(c2ccccc2)C(C)C)c1=O)C(C)(C)C` [Compound 648] here?
A: 0

Q: What about the “Crabgrass plant response rating” value (crabgrass; [2]) of the same compound?
A: 0

Q: And the “Crabgrass plant response rating” value (crabgrass; [3])?
A: 0

Q: What about the “Plant response rating, Crabgrass” value (crabgrass; [4]) of the same compound?
A: 7

Q: And the “Crabgrass plant response rating” value (crabgrass; [5])?
A: 0

Q: And the “Crabgrass plant response rating” value (crabgrass; [6])?
A: 8

Q: And the “Plant response rating, Crabgrass” value (crabgrass; [7])?
A: 9

Q: And the “Plant response rating, Crabgrass” value (crabgrass; [8])?
A: 9

Q: What about the “Plant response rating, Cocklebur” value (cocklebur; [1]) of the same compound?
A: 0

Q: What about the “Cocklebur plant response rating” value (cocklebur; [2]) of the same compound?
A: 0

Q: What about the “Cocklebur plant response rating” value (cocklebur; [3]) of the same compound?
A: 0

Q: What about the “Plant response rating, Cocklebur” value (cocklebur; [4]) of the same compound?
A: 2

Q: And the “Cocklebur plant response rating” value (cocklebur; [5])?
A: 0

Q: What about the “Cocklebur plant response rating” value (cocklebur; [6]) of the same compound?
A: 0

Q: And the “Plant response rating, Cocklebur” value (cocklebur; [8])?
A: 0

Q: What about the “Plant response rating, Blackgrass” value (blackgrass; [1]) of the same compound?
A: 0

Q: And the “Blackgrass plant response rating” value (blackgrass; [2])?
A: 0

Q: What about the “Blackgrass plant response rating” value (blackgrass; [3]) of the same compound?
A: 0

Q: What about the “Plant response rating, Blackgrass” value (blackgrass; [4]) of the same compound?
A: 0

Q: What about the “Blackgrass plant response rating” value (blackgrass; [5]) of the same compound?
A: 0

Q: And the “Blackgrass plant response rating” value (blackgrass; [6])?
A: 0

Q: What about the “Plant response rating, Blackgrass” value (blackgrass; [7]) of the same compound?
A: 2

Q: What about the “Plant response rating, Blackgrass” value (blackgrass; [8]) of the same compound?
A: 5

Q: And the “Plant response rating, Wheat” value (wheat; [1])?
A: 0

Q: And the “Wheat plant response rating” value (wheat; [2])?
A: 0

Q: What about the “Wheat plant response rating” value (wheat; [5]) of the same compound?
A: 0

Q: What about the “Wheat plant response rating” value (wheat; [6]) of the same compound?
A: 0

Q: What about the “Plant response rating, Wheat” value (wheat; [7]) of the same compound?
A: 0

Q: What about the “Plant response rating, Wheat” value (wheat; [8]) of the same compound?
A: 0

Q: And the “Plant response rating, Rape” value (rape; [1])?
A: 0

Q: And the “Rape plant response rating” value (rape; [2])?
A: 0

Q: And the “Plant response rating, Rape” value (rape; [4])?
A: 2

Q: And the “Rape plant response rating” value (rape; [5])?
A: 0

Q: What about the “Rape plant response rating” value (rape; [6]) of the same compound?
A: 0

Q: And the “Plant response rating, Rape” value (rape; [7])?
A: 0

Q: And the “Plant response rating, Rape” value (rape; [8])?
A: 0

Q: And the “Bedstraw plant response rating” value (bedstraw; [2])?
A: 0

Q: And the “Bedstraw plant response rating” value (bedstraw; [5])?
A: 0

Q: What about the “Bedstraw plant response rating” value (bedstraw; [6]) of the same compound?
A: 0

Q: What about the “Plant response rating, Bedstraw” value (bedstraw; [7]) of the same compound?
A: 0

Q: And the “Plant response rating, Bedstraw” value (bedstraw; [8])?
A: 0

Q: What about the “Plant response rating, Giant foxtail” value (giant foxtail; [1]) of the same compound?
A: 0

Q: And the “Giant foxtail plant response rating” value (giant foxtail; [2])?
A: 0

Q: What about the “Giant foxtail plant response rating” value (giant foxtail; [3]) of the same compound?
A: 0

Q: And the “Plant response rating, Giant foxtail” value (giant foxtail; [4])?
A: 3

Q: And the “Giant foxtail plant response rating” value (giant foxtail; [5])?
A: 5

Q: What about the “Giant foxtail plant response rating” value (giant foxtail; [6]) of the same compound?
A: 9

Q: And the “Plant response rating, Giant foxtail” value (giant foxtail; [7])?
A: 9

Q: And the “Plant response rating, Giant foxtail” value (giant foxtail; [8])?
A: 9

Q: And the “Plant response rating, Wild oats” value (wild oat; [1])?
A: 0

Q: What about the “Wild oats plant response rating” value (wild oat; [2]) of the same compound?
A: 0

Q: What about the “Wild oats plant response rating” value (wild oat; [5]) of the same compound?
A: 0

Q: And the “Wild oats plant response rating” value (wild oat; [6])?
A: 0

Q: And the “Plant response rating, Wild oats” value (wild oat; [7])?
A: 0

Q: And the “Plant response rating, Wild oats” value (wild oat; [8])?
A: 0

Q: What about the “Plant response rating, Sugarbeets” value (sugar beet; [1]) of the same compound?
A: 0

Q: And the “Sugarbeets plant response rating” value (sugar beet; [2])?
A: 0

Q: What about the “Sugarbeets plant response rating” value (sugar beet; [5]) of the same compound?
A: 0

Q: And the “Sugarbeets plant response rating” value (sugar beet; [6])?
A: 0

Q: What about the “Plant response rating, Sugarbeets” value (sugar beet; [7]) of the same compound?
A: 0

Q: And the “Plant response rating, Sugarbeets” value (sugar beet; [8])?
A: 0

Q: And the “Plant response rating, Redroot pigweed” value (pigweed; [1])?
A: 0

Q: What about the “Redroot pigweed plant response rating” value (pigweed; [2]) of the same compound?
A: 3

Q: And the “Redroot pigweed plant response rating” value (pigweed; [5])?
A: 0

Q: And the “Redroot pigweed plant response rating” value (pigweed; [6])?
A: 0

Q: And the “Plant response rating, Redroot pigweed” value (pigweed; [7])?
A: 0

Q: And the “Plant response rating, Redroot pigweed” value (pigweed; [8])?
A: 2

Q: What about the “Plant response rating, Corn” value (corn; [1]) of the same compound?
A: 0

Q: And the “Corn plant response rating” value (corn; [2])?
A: 0

Q: What about the “Corn plant response rating” value (corn; [3]) of the same compound?
A: 0

Q: And the “Plant response rating, Corn” value (corn; [4])?
A: 0

Q: And the “Corn plant response rating” value (corn; [5])?
A: 0

Q: And the “Corn plant response rating” value (corn; [6])?
A: 0

Q: What about the “Plant response rating, Corn” value (corn; [7]) of the same compound?
A: 0

Q: And the “Plant response rating, Corn” value (corn; [8])?
A: 0

Q: What about the “Plant response rating, B. signalgrass” value (surinam grass; [1]) of the same compound?
A: 0

Q: What about the “Plant response rating, B. signalgrass” value (surinam grass; [2]) of the same compound?
A: 0

Q: And the “B. signalgrass plant response rating” value (surinam grass; [3])?
A: 0

Q: And the “Plant response rating, B. signalgrass” value (surinam grass; [4])?
A: 0

Q: And the “B. signalgrass plant response rating” value (surinam grass; [5])?
A: 0

Q: What about the “B. signalgrass plant response rating” value (surinam grass; [6]) of the same compound?
A: 0

Q: And the “Plant response rating, B. signalgrass” value (surinam grass; [7])?
A: 0

Q: What about the “Plant response rating, B. signalgrass” value (surinam grass; [8]) of the same compound?
A: 5

Q: And the “Plant response rating, Morningglory” value (morningglory; [1])?
A: 6

Q: And the “Morningglory plant response rating” value (morningglory; [2])?
A: 10

Q: And the “Morningglory plant response rating” value (morningglory; [3])?
A: 10

Q: And the “Plant response rating, Morningglory” value (morningglory; [4])?
A: 10

Q: What about the “Morningglory plant response rating” value (morningglory; [5]) of the same compound?
A: 0

Q: And the “Morningglory plant response rating” value (morningglory; [6])?
A: 0

Q: What about the “Plant response rating, Morningglory” value (morningglory; [7]) of the same compound?
A: 0

Q: What about the “Plant response rating, Morningglory” value (morningglory; [8]) of the same compound?
A: 0

Q: What about the “Plant response rating, Velvetleaf” value (velvetleaf; [1]) of the same compound?
A: 0

Q: And the “Velvetleaf plant response rating” value (velvetleaf; [2])?
A: 0

Q: What about the “Velvetleaf plant response rating” value (velvetleaf; [5]) of the same compound?
A: 0

Q: And the “Velvetleaf plant response rating” value (velvetleaf; [6])?
A: 0

Q: What about the “Plant response rating, Velvetleaf” value (velvetleaf; [7]) of the same compound?
A: 0

Q: What about the “Plant response rating, Velvetleaf” value (velvetleaf; [8]) of the same compound?
A: 0

Q: What about the “Plant response rating, Soybean” value (soybean; [1]) of the same compound?
A: 0

Q: And the “Soybean plant response rating” value (soybean; [2])?
A: 2

Q: And the “Soybean plant response rating” value (soybean; [5])?
A: 0

Q: What about the “Soybean plant response rating” value (soybean; [6]) of the same compound?
A: 0

Q: What about the “Plant response rating, Soybean” value (soybean; [7]) of the same compound?
A: 0

Q: What about the “Plant response rating, Soybean” value (soybean; [8]) of the same compound?
A: 0

Q: What about the “Plant response rating, Nutsedge” value (purple nutsedge; [1]) of the same compound?
A: 0

Q: What about the “Nutsedge plant response rating” value (purple nutsedge; [2]) of the same compound?
A: 0

Q: And the “Plant response rating, Nutsedge” value (purple nutsedge; [4])?
A: 0

Q: And the “Nutsedge plant response rating” value (purple nutsedge; [5])?
A: 0

Q: What about the “Nutsedge plant response rating” value (purple nutsedge; [6]) of the same compound?
A: 0

Q: And the “Plant response rating, Nutsedge” value (purple nutsedge; [7])?
A: 0

Q: And the “Plant response rating, Nutsedge” value (purple nutsedge; [8])?
A: 0
